This passage reports IC50 results from ChEMBL document CHEMBL5726462, “Substituted quinolines as modulators of sodium channels” (2017).

The assay can be described thus: Electrophysiology Assays: Patch clamp electrophysiology was used to assess the efficacy and selectivity of sodium channel blockers in dorsal root ganglion neurons. Rat neurons were isolated from the dorsal root ganglions and maintained in culture for 2 to 10 days in the presence of NGF (50 ng/ml) (culture media consisted of NeurobasalA supplemented with B27, glutamine and antibiotics). Small diameter neurons (nociceptors, 8-12 μm in diameter) were visually identified and probed with fine tip glass electrodes connected to an amplifier (Axon Instruments). The voltage clamp mode was used to assess the compound's IC50 holding the cells at −60 mV. In addition, the current clamp mode was employed to test the efficacy of the compounds in blocking action potential generation in response to current injections. The results of these experiments contributed to the definition of the efficacy profile of the compounds. (The patch-clamp technique gives a direct electrical read-out from membranes.)
A word on the IC50: it is the point on the concentration scale where inhibition reaches its midpoint. On to `O=C(O)c1ccc(NC(=O)c2cc3ccccc3nc2Oc2ccc(F)cc2Cl)cn1`, for which the half-inhibitory concentration (IC50) was determined as 0.096 µM.

Turning to `COc1cc(F)ccc1Oc1nc2ccccc2nc1C(=O)Nc1nnn[nH]1`, the IC50 was 2.2 µM.

In the case of `COc1ccc(Oc2nc3ccccc3cc2C(=O)Nc2ccc(C(=O)O)cc2)c(OC)c1`, the IC50 was 0.55 µM.

Turning to `O=C(O)c1ccc(NC(=O)c2cc3ccccc3nc2Oc2ccccc2OC(F)F)cc1`, the IC50 worked out at 0.975 µM.

With `Cc1cc(F)ccc1Oc1nc2ccccc2cc1C(=O)Nc1ccc(C(=O)O)cc1`, the IC50 was determined as 0.315 µM.

As for `O=C(O)c1ccc(NC(=O)c2cc3ccccc3nc2Oc2ccc(F)cc2F)cc1`, the IC50 came out at 0.275 µM.

As to `O=C(O)c1ccc(NC(=O)c2cc3ccccc3nc2Oc2ccc(F)cc2F)cn1`, the IC50 was determined as 0.255 µM.

Take `NS(=O)(=O)c1cccc(NC(=O)c2cc3ccccc3nc2Oc2ccccc2OC(F)F)c1`: the half-maximal inhibitory concentration (IC50) was determined as 0.024 µM.
